According to ChEMBL document CHEMBL1138458, “Fructose-1,6-bisphosphatase inhibitors. 1. Purine phosphonic acids as novel AMP mimics” (J Med Chem, 2009):

What was measured:
[1] = biological target: T1, Fructose-1,6-bisphosphatase 1 (Homo sapiens, UniProt P09467); assay: Inhibition of human liver FBPase expressed in Escherichia coli by spectrophotometry
T1 sequence (P09467 whole entry): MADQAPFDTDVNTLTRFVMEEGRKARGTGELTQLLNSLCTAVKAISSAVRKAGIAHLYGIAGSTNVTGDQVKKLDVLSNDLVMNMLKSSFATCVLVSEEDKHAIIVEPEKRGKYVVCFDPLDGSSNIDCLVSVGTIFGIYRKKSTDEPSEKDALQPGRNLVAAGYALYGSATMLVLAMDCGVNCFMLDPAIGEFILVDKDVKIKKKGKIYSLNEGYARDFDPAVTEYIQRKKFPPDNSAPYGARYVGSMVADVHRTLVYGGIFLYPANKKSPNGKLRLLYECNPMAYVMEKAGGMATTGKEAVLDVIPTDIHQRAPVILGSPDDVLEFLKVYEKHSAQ

[2] = biological target: T2, Fructose-1,6-bisphosphatase 1 (Homo sapiens) (UniProt P09467)
T2 sequence (whole entry): T1 sequence (P09467 whole entry)
Description: Displacement of [3H]AMP from human liver FBPase

[3] = biological target: T3, Glycogen phosphorylase, muscle form (Oryctolagus cuniculus, UniProt P00489); assay: Inhibition of rabbit muscle glycogen phosphorylase
T3 sequence (P00489 whole entry): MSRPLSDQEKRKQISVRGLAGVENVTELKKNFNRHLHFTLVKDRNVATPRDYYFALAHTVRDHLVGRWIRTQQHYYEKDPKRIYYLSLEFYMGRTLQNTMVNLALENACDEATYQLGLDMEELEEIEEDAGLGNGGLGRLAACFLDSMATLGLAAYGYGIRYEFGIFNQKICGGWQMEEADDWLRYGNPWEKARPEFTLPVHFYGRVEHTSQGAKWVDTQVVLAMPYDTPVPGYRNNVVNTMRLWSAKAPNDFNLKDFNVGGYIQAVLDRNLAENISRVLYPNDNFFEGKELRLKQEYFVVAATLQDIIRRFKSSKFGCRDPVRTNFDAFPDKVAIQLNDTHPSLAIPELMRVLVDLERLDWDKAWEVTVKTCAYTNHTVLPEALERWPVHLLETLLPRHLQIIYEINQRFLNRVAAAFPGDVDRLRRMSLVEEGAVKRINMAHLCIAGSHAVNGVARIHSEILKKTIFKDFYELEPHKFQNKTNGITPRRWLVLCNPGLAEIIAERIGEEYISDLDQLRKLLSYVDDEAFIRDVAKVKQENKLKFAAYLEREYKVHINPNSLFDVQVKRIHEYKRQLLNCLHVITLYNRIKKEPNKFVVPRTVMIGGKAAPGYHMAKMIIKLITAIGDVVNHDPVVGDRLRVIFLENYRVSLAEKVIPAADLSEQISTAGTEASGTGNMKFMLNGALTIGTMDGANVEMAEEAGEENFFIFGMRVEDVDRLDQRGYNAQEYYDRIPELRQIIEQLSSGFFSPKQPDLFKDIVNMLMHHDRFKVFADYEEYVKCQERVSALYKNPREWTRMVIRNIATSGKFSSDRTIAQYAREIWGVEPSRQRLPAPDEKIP

[4] = test system: Rattus norvegicus; assay: Increase in fructose-1,6-bisphosphate level in overnight-fasted Sprague-Dawley rat liver at 20 mg/kg, ip relative to control; type: organism-based; design: dose 20 mg/kg, route intraperitoneal; settings: in vivo
[5] = biological target: Adenosine kinase (Homo sapiens, UniProt P55263); assay: Inhibition of human recombinant adenosine kinase expressed in Escherichia coli
[6] = test system: Rattus norvegicus; assay: Oral bioavailability in fasted Sprague-Dawley rat assessed as urinary excretion of phosphonic acid up to 300 mg/kg; type: ADME, organism-based, Urine; settings: in vivo
[7] = Inhibition of pig heart AMP deaminase; design: species or system Sus scrofa
[8] = Inhibition of New Zealand white rabbit liver phosphofructokinase; design: species or system Oryctolagus cuniculus
[9] = test system: Rattus norvegicus; assay: Reduction in blood glucose level in overnight-fasted Sprague-Dawley rat at 20 mg/kg, ip within 1 hr; type: organism-based; design: dose 20 mg/kg, route intraperitoneal; scale not given: the % may be the effect or the level left; settings: in vivo
[10] = test system: Hepatocyte; assay: Inhibition of glucose production in rat primary hepatocytes treated for 15 to 30 mins prior to gluconeogenic substrate dihydroxyacetone addition; type: functional, cell-based
[11] = test system: Liver; assay: Drug concentration in overnight-fasted Sprague-Dawley rat liver at 20 mg/kg, ip after 1 hr; type: ADME, organism-based; design: dose 20 mg/kg, route intraperitoneal; settings: in vivo
[12] = Plasma concentration in overnight-fasted Sprague-Dawley rat at 20 mg/kg, ip after 1 hr; type: ADME, organism-based; design: dose 20 mg/kg, route intraperitoneal
[13] = biological target: T4, Fructose-1,6-bisphosphatase 1 (Rattus norvegicus, UniProt P19112); assay: Inhibition of rat liver FBPase
T4 sequence (P19112 whole entry): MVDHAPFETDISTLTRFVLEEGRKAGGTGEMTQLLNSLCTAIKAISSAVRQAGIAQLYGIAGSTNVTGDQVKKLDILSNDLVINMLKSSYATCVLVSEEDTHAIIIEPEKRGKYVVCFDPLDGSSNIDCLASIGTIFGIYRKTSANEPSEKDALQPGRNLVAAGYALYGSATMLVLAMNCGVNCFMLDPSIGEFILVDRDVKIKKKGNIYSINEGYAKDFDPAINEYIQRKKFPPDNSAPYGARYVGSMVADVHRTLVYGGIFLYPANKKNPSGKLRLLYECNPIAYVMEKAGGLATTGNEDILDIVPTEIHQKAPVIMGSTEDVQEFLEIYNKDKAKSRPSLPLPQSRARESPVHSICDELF

Adenosine kinase, sequence (P55263 whole entry): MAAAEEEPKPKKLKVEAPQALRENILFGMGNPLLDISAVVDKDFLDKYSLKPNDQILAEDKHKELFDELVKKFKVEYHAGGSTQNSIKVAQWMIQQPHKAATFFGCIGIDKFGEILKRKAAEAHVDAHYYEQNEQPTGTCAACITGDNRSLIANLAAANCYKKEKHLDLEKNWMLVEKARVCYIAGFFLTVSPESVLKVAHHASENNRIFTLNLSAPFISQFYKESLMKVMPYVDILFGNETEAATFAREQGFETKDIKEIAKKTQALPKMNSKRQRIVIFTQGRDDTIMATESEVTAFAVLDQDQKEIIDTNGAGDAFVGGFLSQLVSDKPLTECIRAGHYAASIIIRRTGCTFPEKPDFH

Row | SMILES | IC50 [1] | other results
1 | CC(C)(C)CCn1c(-c2ccc(P(=O)(O)O)o2)nc2c(N)ncnc21 | 1.6 µM | –
2 | Nc1ncnc2c1nc(NCC(=O)O)n2[C@@H]1O[C@H](CO)[C@@H](O)[C@H]1O | > 100 µM | –
3 | Nc1ncnc2c1nc(NCCP(=O)(O)O)n2Cc1ccc2ccccc2c1 | 35 µM | –
4 | Nc1ncnc2[nH]c(NCCP(=O)(O)O)nc12 | > 100 µM | –
5 | CC(n1c(-c2ccc(P(=O)(O)O)o2)nc2c(N)ncnc21)C(C)(C)C (stereo unspecified) | 5 µM | –
6 | NC(=O)c1ncn([C@@H]2O[C@H](COP(=O)(O)O)[C@@H](O)[C@H]2O)c1N | 12 µM | ED50 [2]: 250 µM
7 | Nc1ncnc2c1nc(SCCP(=O)(O)O)n2CCc1ccccc1 | 145 µM | –
8 | CC(C)(C)Cn1c(-c2coc(P(=O)(O)O)c2)nc2c(N)ncnc21 | > 10 µM | –
9 | CC(C)(C)Cn1c(-c2ccc(P(=O)(O)O)o2)nc2c(N)ncnc21 | – | EC50 [3]: > 100 µM; Activity [4]: 10; IC50 [5]: > 100 µM; F [6]: 1.6%; IC50 [7]: 390 µM; EC50 [8]: > 100 µM; Activity [9]: 65%; EC50 [10]: 90 µM; Drug uptake [11]: 51.3 nmol/g; concentration at 1 h [12]: 38.5 µM
10 | O=P(O)(O)c1ccc(-c2nc3c(Cl)ncnc3n2CCc2ccccc2)o1 | 50 µM | –
11 | Nc1ncnc2c1nc(CCC[PH](=O)O)n2CCc1ccccc1 | > 1000 µM | –
12 | CSc1nc(N)c2nc(-c3ccc(P(=O)(O)O)o3)n(CC(C)(C)C)c2n1 | 1.1 µM | IC50 [13]: 4 µM; EC50 [10]: 8.5 µM
13 | Nc1ncnc2c1nc(-c1ccc(P(=O)(O)O)o1)n2C1CCCC1 | – | IC50 [13]: > 20 µM; EC50 [10]: 24 µM
14 | Nc1ncnc2c1nc(CCCP(=O)(O)O)n2CCc1ccccc1 | 100 µM | –
15 | Nc1ncnc2c1nc(CNCP(=O)(O)O)n2CCc1ccccc1 | > 500 µM | –
16 | COc1cc2c(c(OC)c1OC)C(=O)OC2OP(=O)(OC1OC(=O)c2c1cc(OC)c(OC)c2OC)c1ccc(-c2nc3c(N)ncnc3n2CCc2ccccc2)o1 (stereo unspecified) | – | EC50 [10]: 75 µM
17 | Nc1ncnc2c1nc(S(=O)(=O)CCP(=O)(O)O)n2CCc1ccccc1 | > 1000 µM | –
18 | Nc1ncnc2c1nc(NCP(=O)(O)O)n2[C@@H]1O[C@H](CO)[C@@H](O)[C@H]1O | > 100 µM | –
19 | CC(C)(C)Cn1c(-c2ccc(P(=O)(O)O)o2)nc2c(N)nc(N)nc21 | 5.5 µM | –
20 | Nc1ncnc2c1nc(-c1ccc(P(=O)(O)O)o1)n2CCC1CCCCC1 | – | IC50 [13]: 20 µM; EC50 [10]: 90 µM; ED50 [2]: 35 µM
21 | Cn1c(-c2nc3c(N)ncnc3n2CC(C)(C)C)ccc1P(=O)(O)O | > 10 µM | –
22 | Nc1ncnc2c1nc(-c1ccc(P(=O)(OCCSSCCO)OCCSSCCO)o1)n2CCc1ccccc1 | – | EC50 [10]: > 500 µM
23 | Cn1c(P(=O)(O)O)cnc1-c1nc2c(N)ncnc2n1CC(C)(C)C | > 10 µM | –
24 | Nc1ncnc2c1nc(NCCP(=O)(O)O)n2CCc1ccccc1 | 100 µM | –
25 | Nc1ncnc2c1nc(NCCCP(=O)(O)O)n2[C@@H]1O[C@H](CO)[C@@H](O)[C@H]1O | > 100 µM | –
26 | Nc1ncnc2c1nc(C(=O)NCP(=O)(O)O)n2CCc1ccccc1 | 100 µM | –
27 | Nc1ncnc2c1nc(NCCP(=O)(O)O)n2Cc1ccccc1 | 91 µM | –
28 | CSc1nc(N)c2nc(-c3ccc(P(=O)(O)O)o3)n(CC(C)C)c2n1 | – | IC50 [13]: > 20 µM; EC50 [10]: > 25 µM
29 | Nc1ncnc2c1nc(COCP(=O)(O)O)n2CCc1ccccc1 | 23 µM | –
30 | Nc1ncnc2c1nc(/C=C/CP(=O)(O)O)n2CCc1ccccc1 | 100 µM | –
